Source: patent EP4556003A1, “ANTI-OBESITY AND ANTI-DIABETIC ACTIVITY OF BROMINATED DITERPENES FROM RED ALGAE OF THE GENUS LAURENCIA AND APPLICATIONS THEREOF” (priority 2023, dated 2025)

Key:
3T3-L1 cells [1] = assay: MTT cell viability / proliferation assay; type: cell-based, Mouse
Method: The cell viability was evaluated using the MTT assay. 3T3-L1 cells were seeded at a density of 1×10^3 in 96-well plates and incubated for 24h. Compounds 1 and 2 were added in the wells at various concentrations and then incubated at 37 °C. Cells were treated with compound 1 at concentrations of 62.5, 46.875, 31.25, 15.625, 7.81 and 3.9 µM. Cells were treated with compound 2 at concentrations of 62.5, 25.0, 12.5, 6.25 and 3.125 µM. After 24, 48, and 72 h of treatment, MTT solution was added in the wells at a final concentration of 0.5 mg/mL and incubated for 4 h. Cell culture media with MTT was removed and the formazan crystals were dissolved in 100 µl/well isopropanol/HCl (0.4%) and the absorbance was measured at 600 nm using the Infinite® 200 PRO microplate plate reader (Tecan, Zurich, Switzerland).

3T3-L1 adipocytes = assay: Oil red o staining of intracellular lipid accumulation; type: cell-based, Mouse; conditions: differentiation induced in the presence of compound, after 12 days; 1 at 62.5 µM, 2 at 25 µM
Method: Mouse 3T3-L1 preadipocytes were maintained in proliferation medium containing DMEM supplemented with 10% (v/v) heat inactivated NBCS and 1% (v/v) penicillin-streptomycin at 37 °C with 5% CO2, humidified atmosphere. Cells were seeded in T-75 flasks at a density of 25×10^4 cells/flask. Cultures never became completely confluent according to the manufacturer's instructions. They were passaged using trypsin-EDTA solution once they reached 70-80% confluency. For differentiation, 3T3-L1 cells were seeded and after 24 h (day 1), cell differentiation was induced by changing the medium to high glucose DMEM containing 10% (v/v) heat inactivated FBS, 1% penicillin-streptomycin, 10 µg/mL insulin, 0.25 µM Dexamethasone (GAP), 0.5 mM IBMX (=differentiation medium I). On day 3, the medium was changed to high glucose DMEM containing 10% FBS, 1% penicillin- streptomycin, and 10 µg/mL insulin (=differentiation medium II). Thereafter, medium was changed every other day switching between differentiation medium I and differentiation medium II until day 12 or 23, when adipocytes were harvested. Control group preadipocytes were seeded at a higher density and harvested after two days. Test compounds were administered either at the initiation of differentiation, or after 15 days of differentiation and with every medium change. To determine the effect on preadipocyte differentiation, cells were seeded and after 24 h they were treated with neorogioldiol. Neorogioldiol was maintained in the culture medium throughout cell differentiation period. To determine the effect of neorogioldiol on mature adipocytes, cells were seeded and induced to differentiate for 14 days, then on day 15 neorogioldiol was added to the differentiation medium for 24 h before cells were harvested. Each compound used was diluted in a 90% carbowax™ 400, 10% (v/v) absolute ethanol solution serving as a control solvent. The final concentration in culture was 0.09% (v/v) carbowax and 0.01% (v/v) ethanol. […]
Oil red o staining was applied to measure lipid accumulation intracellularly. Briefly, after 12 or 23 days of differentiation, the cell culture medium was removed and the 3T3-L1 adipocytes were fixed in 3.7% formaldehyde for 60 min at room temperature. Next, a solution of 0.21% oil red o was filtered using a 0.45 µm filter followed by incubation of the fixed cells for 45 min at room temperature. Excess dye was removed and cells were washed twice with PBS. Fresh PBS was added and the lipid droplets within the differentiated 3T3-L1 cells were visualized and photographed by microscopy. For quantitative analysis, oil red o staining was eluted with 100% isopropanol and the absorbance was measured at 510 nm using the Infinite® 200 PRO microplate plate reader (Tecan, Zurich, Switzerland).

COX2 = conditions: in vitro model, reference [11]; cited from earlier work
NFKB1 = conditions: in vitro model, reference [11]; cited from earlier work
[2] = references [10, 11]; cited from earlier work
3T3-L1 cells [3] = assay: Quantitative PCR of relative mRNA expression in cell culture samples; type: cell-based, Mouse; conditions: cells differentiated in the presence of compound, 12 days; 1 at 62.5 µM, 2 at 25 µM
Method: Mouse 3T3-L1 preadipocytes were maintained in proliferation medium containing DMEM supplemented with 10% (v/v) heat inactivated NBCS and 1% (v/v) penicillin-streptomycin at 37 °C with 5% CO2, humidified atmosphere. Cells were seeded in T-75 flasks at a density of 25×10^4 cells/flask. Cultures never became completely confluent according to the manufacturer's instructions. They were passaged using trypsin-EDTA solution once they reached 70-80% confluency. For differentiation, 3T3-L1 cells were seeded and after 24 h (day 1), cell differentiation was induced by changing the medium to high glucose DMEM containing 10% (v/v) heat inactivated FBS, 1% penicillin-streptomycin, 10 µg/mL insulin, 0.25 µM Dexamethasone (GAP), 0.5 mM IBMX (=differentiation medium I). On day 3, the medium was changed to high glucose DMEM containing 10% FBS, 1% penicillin- streptomycin, and 10 µg/mL insulin (=differentiation medium II). Thereafter, medium was changed every other day switching between differentiation medium I and differentiation medium II until day 12 or 23, when adipocytes were harvested. Control group preadipocytes were seeded at a higher density and harvested after two days. Test compounds were administered either at the initiation of differentiation, or after 15 days of differentiation and with every medium change. To determine the effect on preadipocyte differentiation, cells were seeded and after 24 h they were treated with neorogioldiol. Neorogioldiol was maintained in the culture medium throughout cell differentiation period. To determine the effect of neorogioldiol on mature adipocytes, cells were seeded and induced to differentiate for 14 days, then on day 15 neorogioldiol was added to the differentiation medium for 24 h before cells were harvested. Each compound used was diluted in a 90% carbowax™ 400, 10% (v/v) absolute ethanol solution serving as a control solvent. The final concentration in culture was 0.09% (v/v) carbowax and 0.01% (v/v) ethanol. Compounds were used at the following concentrations: neorogioldiol (1) 62.5µM and neorogioltriol (2) 25µM.
Adipocytes and preadipocytes were harvested using the TRI Reagent®. RNA isolation was carried out according to the manufacturer's instructions. The purified RNA was quantified using the Nanodrop micro-volume spectrophotometer and 500 ng of each sample were used as a template for reverse transcription. cDNA synthesis was performed using the PrimeScriptTM RT reagent Kit (TaKaRa, RR037A) according to manufacturer's instructions. The cDNA produced by the above described procedure was diluted and used as a template for two-step quantitative PCR in a StepOnePlus™ Real-Time PCR System (Applied Biosystems™, 4376600) for a maximum of 40 cycles, as follows: start step 95 °C for 3 min, repeat steps: 95 °C for 15 s and 60 °C for 30 s. Amplification was performed using KAPA SYBR® FAST Universal qPCR kit (Kapa Biosystems, KK4618) according to manufacturer's instructions. Relative quantitative analysis was accomplished calculating fold-changes of gene expression as 2-(ΔΔCt), where ΔCt is (Ct (gene of interest) - Ct (housekeeping gene)). Ppib was used as internal control gene in 3T3L1 cells and in the fat fraction of mice abdominal fat, Rps9 was used as internal control gene in the stromal vascular fraction of mice abdominal fat and Actb was used as internal control gene in liver samples. Table 1. List of primers used for quantitative real-time PCR analysis.

[4] = reference [12]; cited from earlier work

Compound | concentrations that did not exhibit cytotoxicity (3T3-L1 cells [1]; concentration chosen for further analyses) [µM] | concentration with cytostatic effects (3T3-L1 cells [1]; three-day incubation (24, 48, 72 h), compound 1: after the first 24 h of treatment) | lipid accumulation (3T3-L1 adipocytes) | COX2 levels (COX2) | NFKB1 levels (NFKB1) | analgesic properties in vivo [2] | anti-inflammatory properties in vivo [2] | Adipoq expression levels (3T3-L1 cells [3]) | Dlkl mRNA expression (3T3-L1 cells [3]) | Lep expression levels (3T3-L1 cells [3]) | Slc2a4 expression levels (3T3-L1 cells [3]) | anti-inflammatory activity [4]
C=C([C@H]1CC[C@@](C)(O)[C@@H](Br)C1)[C@H]1[C@H](O)[C@@H]2[C@@H](CC[C@@]2(C)O)C1(C)C [neorogioltriol] | 25 | above 25 µM | increased lipid accumulation | reducing | reducing | potent | potent | restricted the increase | did not change | restricted the increase | restricted the increase | –
O^11,15-cyclo-14-bromo-14,15-dihydrorogiol-3,11-diol | – | – | – | – | – | – | – | – | – | – | – | potent anti-inflammatory activity
